HELM strings list units from the 5' end as sugar, base in round brackets, then linkage (d deoxyribose, r ribose, m 2'-O-methyl, p phosphodiester). Strings are as the collection lists them; they lack the last nucleoside at the 3' end of the tested compound. [moe] = 2'-O-(2-methoxyethyl) (MOE); [sp] = phosphorothioate linkage; [m5C] = 5-methylcytosine

Data on 9 substances can be found in the OligoGym collection.

The target of the data set is ATXN2. In words: mouse, dose not given. Conditions: ASO.

In turn, “RNA1{[moe](T)[sp].[moe](A)p.[moe](T)p.[moe](G)p.[moe](T)[sp].d(T)[sp].d(T)[sp].d(G)[sp].d(T)[sp].d([m5C])[sp].d(T)[sp].d(G)[sp].d(T)[sp].[moe]([m5C])p.[moe](T)p.[moe](T)[sp].[moe](A)}$$$$ (last 3' nucleoside missing)” yielded a 3 h FOB score of 6 score 0-7.

Take “RNA1{[moe](T)[sp].[moe](G)p.[moe]([m5C])p.[moe](T)p.[moe]([m5C])p.d(T)[sp].d([m5C])[sp].d(T)[sp].d(T)[sp].d(T)[sp].d(G)[sp].d([m5C])[sp].d(G)[sp].d([m5C])[sp].d([m5C])[sp].[moe](T)p.[moe](G)p.[moe](T)[sp].[moe](G)}$$$$ (last 3' nucleoside missing)”: the 3 h FOB score turned out to be 5 score 0-7. Take “RNA1{[moe](T)[sp].[moe]([m5C])p.[moe](T)p.[moe](G)[sp].[moe](T)[sp].d(A)[sp].d([m5C])[sp].d(T)[sp].d(T)[sp].d(T)[sp].d(T)[sp].d([m5C])[sp].d(T)[sp].d([m5C])[sp].d(A)[sp].[moe](T)p.[moe](G)p.[moe](T)[sp].[moe](G)}$$$$ (last 3' nucleoside missing)”: the 3 h FOB score turned out to be 1 score 0-7. The result for “RNA1{[moe](A)[sp].[moe](G)p.[moe](G)p.[moe]([m5C])p.[moe](A)p.d(T)[sp].d(A)[sp].d(A)[sp].d(A)[sp].d(T)[sp].d(T)[sp].d(T)[sp].d([m5C])[sp].d(A)[sp].d(T)[sp].[moe]([m5C])p.[moe](T)p.[moe](T)[sp].[moe](A)}$$$$ (last 3' nucleoside missing)” reads 0 score 0-7; that for “RNA1{[moe](T)[sp].[moe](G)p.[moe](T)p.[moe](T)p.[moe](A)p.d([m5C])[sp].d(T)[sp].d(T)[sp].d(A)[sp].d(T)[sp].d(T)[sp].d(A)[sp].d([m5C])[sp].d([m5C])[sp].d(T)[sp].[moe](T)p.[moe]([m5C])p.[moe]([m5C])[sp].[moe](T)}$$$$ (last 3' nucleoside missing)”, 4 score 0-7. The result for “RNA1{[moe](G)[sp].[moe](T)p.[moe](G)p.[moe](T)p.[moe](T)p.d(G)[sp].d([m5C])[sp].d(A)[sp].d([m5C])[sp].d(A)[sp].d(T)[sp].d(A)[sp].d(G)[sp].d(G)[sp].d(T)[sp].[moe](T)p.[moe](A)p.[moe](G)[sp].[moe](A)}$$$$ (last 3' nucleoside missing)” reads 6.5 score 0-7; that for “RNA1{[moe](A)[sp].[moe](A)p.[moe](T)p.[moe](A)p.[moe](G)p.d(G)[sp].d(G)[sp].d(T)[sp].d(T)[sp].d(T)[sp].d(T)[sp].d(G)[sp].d(T)[sp].d(T)[sp].d([m5C])[sp].[moe](A)p.[moe](T)p.[moe](G)[sp].[moe]([m5C])}$$$$ (last 3' nucleoside missing)”, 3.75 score 0-7. Consider “RNA1{[moe](T)[sp].[moe](G)p.[moe](T)p.[moe](G)p.[moe](A)p.d(G)[sp].d(T)[sp].d(T)[sp].d([m5C])[sp].d(A)[sp].d([m5C])[sp].d([m5C])[sp].d(T)[sp].d(G)[sp].d([m5C])[sp].[moe](A)p.[moe](T)p.[moe]([m5C])[sp].[moe]([m5C])}$$$$ (last 3' nucleoside missing)”, for which the 3 h FOB score was 3.5 score 0-7. The result for “RNA1{[moe](A)[sp].[moe]([m5C])p.[moe](T)p.[moe](G)p.[moe](T)p.d(T)[sp].d(T)[sp].d([m5C])[sp].d(G)[sp].d(A)[sp].d([m5C])[sp].d([m5C])[sp].d(T)[sp].d([m5C])[sp].d(T)[sp].[moe](G)p.[moe](A)p.[moe](A)[sp].[moe](A)}$$$$ (last 3' nucleoside missing)” reads 4 score 0-7.
